Laboratory results published in patent US9096598B2 (Merck Sharp & Dohme Corp., priority 2011, dated 2015).

Experiments:
JAK2 = target: T1, JAK2 (Homo sapiens, UniProt O60674); experiment: Jak Biochemical HTRF Assay (JAK2); settings: recombinant purified GST-tagged catalytic domain, [ATP] 8.5 μM, values given as range classes
T1 construct: recombinant purified GST-tagged catalytic domain for each enzyme; purchased Invitrogen M4290
Protocol: (§1) Jak Biochemical HTRF Assay Protocol
(§2) The ability of compounds to inhibit the activity of JAK1, JAK2, JAK3, and Tyk2 was measured using a recombinant purified GST-tagged catalytic domain for each enzyme (Invitrogen JAK1 #M4290, JAK2 #M4290, JAK3 #M4290, Tyk2 #M4290) in an HTRF format biochemical assay. The reactions employed a common peptide substrate, LCB-EQEDEPEGDYFEWLW-NH2 (in-house). The basic assay protocol is as follows: First, 250 nL of diluted compounds in DMSO were dispensed into the wells of a dry 384-well Black plate (Greiner #781076) using a Labcyte Echo 555 acoustic dispenser. Subsequent reagent additions employed an Agilent Bravo. Next, 18 μL of 1.11× enzyme and 1.11× substrate in 1× assay buffer (Invitrogen kinase buffer #PV3189, 2 mM DTT, 0.05% BSA) were added to the wells and shaken and then preincubated for 30 minutes at room temperature to allow compound binding to equilibrate. After equilibration, 2 μL of 10×ATP in 1× assay buffer was added to initiate the kinase reaction and the plates were shaken and then incubated at room temperature for 120 minutes. At the end of the incubation, 20 μL of 2× stop buffer (streptavidin-Dylight 650 (Thermo #84547B/100 mL), Eu-tagged pY20 antibody (Perkin Elmer #AD0067), EDTA, HEPES, and Triton) was added to quench the reaction. Plates were shaken and centrifuged and then incubated 60 minutes at room temperature and then read on a Perkin Elmer Envision (λex=337 nm, λem=665 and 615 nm, TRF delay time=20 μs). HTRF signal=10,000*665 nm reading/615 nm reading. After normalization to untreated controls, the percent inhibition of the HTRF signal at each compound concentration was calculated. The plot of percent inhibition versus the log of compound concentration was fit with a 4-parameter dose response equation to calculate IC50 values.
(§3) Final reaction conditions were:
(§4) Examples of the instant invention were evaluated in JAK2 and JAK3 in vitro binding assays. Table 13 tabulates the biological data disclosed for the instant invention as a range of JAK2 and JAK3 IC50 values (A: IC50≦10 nM; B: 10 nM>IC50≦500 nM C: IC50>500 nM).

JAK3 = target: T2, JAK3 (Homo sapiens, UniProt P52333); experiment: Jak Biochemical HTRF Assay (JAK3); settings: recombinant purified GST-tagged catalytic domain, [ATP] 2.9 μM, values given as range classes
T2 construct: recombinant purified GST-tagged catalytic domain for each enzyme; purchased Invitrogen M4290
T2 sequence (P52333 822-1111 limits assumed): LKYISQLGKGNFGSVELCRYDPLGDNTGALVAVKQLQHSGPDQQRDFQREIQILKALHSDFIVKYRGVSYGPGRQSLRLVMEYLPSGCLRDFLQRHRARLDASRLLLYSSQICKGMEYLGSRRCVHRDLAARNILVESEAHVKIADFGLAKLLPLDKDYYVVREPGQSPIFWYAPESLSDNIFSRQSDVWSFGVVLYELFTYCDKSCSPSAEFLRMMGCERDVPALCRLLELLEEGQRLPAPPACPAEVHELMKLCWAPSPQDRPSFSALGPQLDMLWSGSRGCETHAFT
Protocol: as §1, §2, §3, §4

T1 sequence (O60674 849-1124 limits assumed): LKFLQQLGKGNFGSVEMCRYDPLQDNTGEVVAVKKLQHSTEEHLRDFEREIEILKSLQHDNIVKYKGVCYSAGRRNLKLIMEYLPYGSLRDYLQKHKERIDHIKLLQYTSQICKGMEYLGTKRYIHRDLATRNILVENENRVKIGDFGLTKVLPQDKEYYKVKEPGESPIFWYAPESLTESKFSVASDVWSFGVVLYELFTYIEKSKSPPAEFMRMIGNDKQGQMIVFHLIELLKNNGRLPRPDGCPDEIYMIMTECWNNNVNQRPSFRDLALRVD

Row | SMILES | IC50 (JAK2) | IC50 (JAK3)
1 | CC(C)[C@@H](Nc1cnnc(-c2c[nH]c3ncc(C#N)cc23)n1)C(=O)NCC(F)(F)F [Example 1-17, N~2~-[3-(5-cyano-1H-pyrrolo[2,3-b]pyridin-3-yl)-1,2,4-triazin-5-yl]-N-(2,2,2-trifluoroethyl)-D-valinamide] | 10 to 500 nM | ≤ 10 nM
2 | CC(C)C(Nc1cncc(-c2c[nH]c3ncc(F)cc23)c1)C(=O)NCC(F)(F)F (stereo not drawn) [Example 1-2, 2-{[5-(5-fluoro-1H-pyrrolo[2,3-b]pyridin-3-yl)pyridin-3-yl]amino}-3-methyl-N-(2,2,2-trifluoroethyl)butanamide] | 10 to 500 nM | ≤ 10 nM
3 | CC(C)[C@H](Nc1cncc(-c2c[nH]c3ncc(C#N)cc23)c1)C(=O)NCC(F)(F)F [Example 1-41, N~2~-[5-(5-cyano-1H-pyrrolo[2,3-b]pyridin-3-yl)pyridin-3-yl]-N-(2,2,2-trifluoroethyl)valinamide] | 10 to 500 nM | ≤ 10 nM
4 | C[C@@H](Nc1cnnc(-c2c[nH]c3ncc(Cl)cc23)c1)C(=O)NCC(F)(F)F [Example 1-24, N~2~-[6-(5-chloro-1H-pyrrolo[2,3-b]pyridin-3-yl)pyridazin-4-yl]-N-(2,2,2-trifluoroethyl)-D-alaninamide] | 10 to 500 nM | ≤ 10 nM
5 | CC(C)[C@@H](Nc1cncc(-c2c[nH]c3ncc(COC(C)(C)C)cc23)c1)C(=O)NCC(F)(F)F [Example 9-2, N~2~-{5-[5-(tert-butoxymethyl)-1H-pyrrolo[2,3-b]pyridin-3-yl]pyridin-3-yl}-N-(2,2,2-trifluoroethyl)-D-valinamide] | 10 to 500 nM | 10 to 500 nM
6 | COc1cnc2[nH]cc(-c3cncc(N[C@H](C)C(=O)NCC(F)(F)F)c3)c2c1 [Example 1-31, N~2~-[5-(5-methoxy-1H-pyrrolo[2,3-b]pyridin-3-yl)pyridin-3-yl]-N-(2,2,2-trifluoroethyl)-D-alaninamide] | 10 to 500 nM | ≤ 10 nM
7 | CC(C)(Nc1cncc(-c2c[nH]c3ncc(C#N)cc23)c1)C(=O)NCC(F)(F)F [Example 1-44, N~2~-[5-(5-cyano-1H-pyrrolo[2,3-b]pyridin-3-yl)pyridin-3-yl]-2-methyl-N-(2,2,2-trifluoroethyl)alaninamide] | 10 to 500 nM | ≤ 10 nM
8 | O=C(NCC(F)(F)F)[C@H]1CCCC[C@H]1Nc1cnnc(-c2c[nH]c3ncc(Cl)cc23)n1 [Example 1-19, (1S,2R)-2-{[3-(5-chloro-1H-pyrrolo[2,3-b]pyridin-3-yl)-1,2,4-triazin-5-yl]amino}-N-(2,2,2-trifluoroethyl)cyclohexane-carboxamide] | 10 to 500 nM | 10 to 500 nM
9 | CC(C)[C@H](Nc1cncc(-c2c[nH]c3ncc(Cl)cc23)c1)C(=O)NCC(F)(F)F [Example 1-52, N-18 2~-[5-(5-chloro-1H-pyrrolo[2,3-b]pyridin-3-yl)pyridin-3-yl]-N-(2,2,2-trifluoroethyl)-L-valinamide] | 10 to 500 nM | ≤ 10 nM
10 | C[C@@H](Nc1cncc(-c2c[nH]c3ncc(S(C)(=O)=O)cc23)c1)C(=O)NCC(F)(F)F [Example 1-34, N~2~-{5-[5-(methylsulfonyl)-1H-pyrrolo[2,3-b]pyridin-3-yl]pyridin-3-yl}-N-(2,2,2-trifluoroethyl)-D-alaninamide] | > 500 nM | ≤ 10 nM

Second part, the compound after the results:

Row | IC50 (JAK2) | IC50 (JAK3) | SMILES
11 | > 500 nM | 10 to 500 nM | Cc1ncoc1C(=O)NCc1cnc2[nH]cc(-c3cncc(N[C@H](C(=O)NCC(F)(F)F)C(C)C)c3)c2c1 [Example 10-7, N~2~-{5-[5-({[(4-methyl-1,3-oxazol-5-yl)carbonyl]amino}methyl)-1H-pyrrolo[2,3-b]pyridin-3-yl]pyridin-3-yl}-N-(2,2,2-trifluoroethyl)valinamide]
12 | 10 to 500 nM | ≤ 10 nM | CC(C)[C@@H](Nc1cncc(-c2c[nH]c3ncc(C(=O)NCc4ccn[nH]4)cc23)c1)C(=O)NCC(F)(F)F [Example 3-10, 3-[5-({(1R)-2-methyl-1-[(2,2,2-trifluoroethyl)carbamoyl]propyl}amino)pyridin-3-yl]-N-(1H-pyrazol-5-ylmethyl)-1H-pyrrolo[2,3-b]pyridine-5-carboxamide]
13 | 10 to 500 nM | 10 to 500 nM | CC(C)[C@@H](Nc1cncc(-c2c[nH]c3ncc(COCCN4CCCC4)cc23)c1)C(=O)NCC(F)(F)F [Example 9-1, (R)-3-methyl-2-(5-(5-((2-(pyrrolidin-1-yl)ethoxy)methyl)-1H-pyrrolo[2,3-b]pyridin-3-yl)pyridin-3-ylamino)-N-(2,2,2-trifluoroethyl)butanamide]
14 | 10 to 500 nM | ≤ 10 nM | COCC(C)NC(=O)c1cnc2[nH]cc(-c3cncc(N[C@@H](C(=O)NCC(F)(F)F)C(C)C)c3)c2c1 (stereo partly drawn) [Example 3-3, N-(2-methoxy-1-methylethyl)-3-[5-({(1R)-2-methyl-1-[(2,2,2-trifluoroethyl)carbamoyl]propyl}amino)pyridin-3-yl]-1H-pyrrolo[2,3-b]pyridine-5-carboxamide]
15 | 10 to 500 nM | ≤ 10 nM | COCc1cnc2[nH]cc(-c3cncc(N[C@@H](C(=O)NCC(F)(F)F)C(C)C)c3)c2c1 [Example 9-9, N~2~-{5-[5-(methoxymethyl)-1H-pyrrolo[2,3-b]pyridin-3-yl]pyridin-3-yl}-N-(2,2,2-trifluoroethyl)-D-valinamide]
16 | 10 to 500 nM | ≤ 10 nM | CC(C)[C@H](Nc1cncc(-c2c[nH]c3ncc(OC4CCOCC4)cc23)c1)C(=O)NCC(F)(F)F [Example 2-9, N~2~-{5-[5-(tetrahydro-2H-pyran-4-yloxy)-1H-pyrrolo[2,3-b]pyridin-3-yl]pyridin-3-yl}-N-(2,2,2-trifluoroethyl)valinamide]
17 | > 500 nM | 10 to 500 nM | CC(C)[C@@H](Nc1cncc(-c2c[nH]c3ncc(C(=O)N(C)C(C)c4ccn[nH]4)cc23)c1)C(=O)NCC(F)(F)F (stereo partly drawn) [Example 3-11, N-methyl-3-[5-({(1R)-2-methyl-1-[(2,2,2-trifluoroethyl)carbamoyl]propyl}amino)pyridin-3-yl]-N-[1-(1H-pyrazol-5-yl)ethyl]-1H-pyrrolo[23-b]pyridine-5-carboxamide]
18 | > 500 nM | 10 to 500 nM | CCC(=O)NCc1cnc2[nH]cc(-c3cncc(N[C@H](C(=O)NCC(F)(F)F)C(C)C)c3)c2c1 [Example 10-2, N~2~-(5-{5-[(propanoylamino)methyl]-1H-pyrrolo[2,3-b]pyridin-3-yl}pyridin-3-yl)-N-(2,2,2-trifluoroethyl)valinamide]
19 | 10 to 500 nM | ≤ 10 nM | CCC(=O)Nc1cnc2[nH]cc(-c3cncc(NC(C(=O)NCC(F)(F)F)C(C)C)c3)c2c1 (stereo not drawn) [Example 5-6, N^2-{5-[5-(propanoylamino)-1H-pyrrolo[2,3-b]pyridin-7-ium-3-yl]pyridin-3-yl}-N-(2,2,2-trifluoroethyl)valinamide]
20 | 10 to 500 nM | ≤ 10 nM | CC(C)C(Nc1cncc(-c2c[nH]c3ncc(OCC4CCN(C)CC4)cc23)c1)C(=O)NCC(F)(F)F (stereo not drawn) [Example 2-18, N~2~-(5-{5-[(1-methylpiperidin-4-yl)methoxy]-1H-pyrrolo[2,3-b]ppidin-3-yl}pyridin-3-yl)-N-(2,2,2-trifluoroethyl)valinamide]
21 | ≤ 10 nM | ≤ 10 nM | CC(C)C(Nc1cncc(-c2c[nH]c3ncc(-c4cnn(C)c4)cc23)c1)C(=O)NCC(F)(F)F (racemic) [Example 8-1, N^2-{5-[5-(1-methyl-1H-pyrazol-4-yl)-1H-pyrrolo[2,3-b]pyridin-3-yl]pyridin-3-yl}-N-(2,2,2-trifluoroethyl)valinamide]
22 | > 500 nM | 10 to 500 nM | CC(C)C(Nc1cncc(-c2c[nH]c3ncc(S(=O)(=O)N(C)C)cc23)c1)C(=O)NCC(F)(F)F (stereo not drawn) [Example 4-2, 2-(5-(5-(N,N-dimethylsulfamoyl)-1H-pyrrolo[2,3-b]pyridin-3-yl)pyridin-3-ylamino)-3-methyl-N-(2,2,2-trifluoroethyl)butanamide]
23 | 10 to 500 nM | ≤ 10 nM | CC(C)[C@H](Nc1cncc(-c2c[nH]c3ncc(OCC4CC4)cc23)c1)C(=O)NCC(F)(F)F [Example 2-6, N~2~-{5-[5-(cyclopropylmethoxy)-1H-pyrrolo[2,3-b]pyridin-3-yl]pyridin-3-yl}-N-(2,2,2-trifluoroethyl)valinamide]
24 | 10 to 500 nM | ≤ 10 nM | CCCNC(=O)Nc1cnc2[nH]cc(-c3cncc(NC(C(=O)NCC(F)(F)F)C(C)C)c3)c2c1 (stereo not drawn) [Example 6-2, N~2~-(5-{5-[(propylcarbamoyl)amino]-1H-pyrrolo[2,3-b]pylidin-3-yl}pyridin-3-yl)-N-(2,2,2-trifluoroethyl)valinamide]
